Test results: patent US6906098B2, “Mixed steroidal 1,2,4,5-tetraoxane compounds and methods of making and using thereof” (priority 2002, dated 2005)
Values after ≈ are worked out from the molar mass of the structure shown.

How the values were obtained:
[1] = system: Plasmodium falciparum chloroquine-susceptible strain D6; test: In vitro antimalarial drug susceptibility assay (radiolabeled hypoxanthine incorporation), strain D6; type: cell-based; settings: Plasmodium falciparum, D6, 66 h, read-out: Strain D6 IC50, growth inhibition, chloroquine-susceptible strain D6, 66 h incubation
[2] = system: Plasmodium falciparum chloroquine-resistant strain W2; test: microbe, parasite or virus in culture; type: cell-based; settings: Plasmodium falciparum, W2, 66 h, read-out: Strain W2 IC50, growth inhibition, chloroquine-resistant strain W2, 66 h incubation
[3] = system: D6 and W2 P. falciparum clones; type: cell-based, Plasmodium falciparum; settings: IC50 (W2)/IC50 (D6) ratio
[4] = system: Mycobacterium tuberculosis H37Rv (ATCC 27294); test: Primary screen, Microplate Alamar Blue Assay (MABA), percent inhibition; type: cell-based; settings: Mycobacterium tuberculosis, Table 5; Alamar assay, primary screening at 6.25 μg/ml; read-out: % Inhib
How it was run: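 Single-concentration screen at 6.25 μg/ml (or molar equivalent of the heaviest congener in a series) against H37Rv grown in BACTEC 12B medium. Growth read by Microplate Alamar Blue Assay, reported as percent inhibition.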

M. tuberculosis H37Rv = test: Minimum inhibitory concentration (MIC) in the MABA; type: cell-based, Mycobacterium tuberculosis; settings: Mycobacterium tuberculosis, H37RV, Table 5; Alamar assay, M. tuberculosis H37Rv; read-out: MIC
How it was run: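 Run under the NIAID TAACF screening program against M. tuberculosis by fluorescence read-out. MIC taken as the lowest concentration giving 90% reduction in fluorescence relative to controls.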

[5] = system: 60 human tumor cell lines; test: DTP Human Tumor Cell Line Screen, full panel; type: cell-based; settings: range over 60 cell lines, after 48 h, read-out: LC50 (the source's name)
Method: In preliminary tests, four compounds (1B14a, 1C44, 1C45, and 1C46) were chosen by NIH-NCI for in vitro screening. See Drug discovery and development program, National Cancer Institute, Bethesda, (NCI), http://dtp.nci.nih.gov. All tetraoxanes were evaluated in the 3-cell line (lung—NCI-H460, breast—MCF7, CNS-SF-268) one dose primary anticancer assay: growth percentage after 48 hours, at 100 μM concentration of tested compound. Two compounds were eliminated at this step (1B14a and 1C46), while the acid 1C44 and primary amide 1C45 were evaluated against the full panel of 60 human tumor cell lines starting with 10^−4 M concentration of investigated compounds.
The activity of numerous compounds of the present invention against various cancer cell lines was submitted to the Developmental Therapeutics Program (DTP) at the National Cancer Institute (NCI) of the National Institutes of Health (NIH) for screening.
The DTP Human Tumor Cell Line Screen utilizes 60 different human tumor cell lines, representing leukemia, melanoma and cancers of the lung, colon, brain, ovary, breast, prostate, and kidney according to conventional methods known in the art. […]

[6] = system: standard panel of 12 tumor cell lines in hollow fibers (IP and SC implants); test: Hollow Fiber Assay; type: in vivo, mice
Method: Generally, as a preliminary in vivo screening tool, the following assay is conducted. A standard panel of 12 tumor cell lines were used for the routine hollow fiber screening of the in vitro activities. These include NCI-H23, NCI-H522, MDA-MB-231, MDA-MB-435, SW-620, COLO 205, LOX, UACC-62, OVCAR-3, OVCAR-5, U251 and SF-295 according to conventional methods known in the art. See e.g. Hollingshead, M., et al. (1995) Life Sciences 57:131-141, which is herein incorporated by reference. The cell lines are cultivated in RPMI-1640 containing 10% FBS and 2 mM glutamine. On the day preceeding hollow fiber preparation, the cells are given a supplementation of fresh medium to maintain log phase growth. […] On the day of implantation, samples of each tumor cell line preparation are quantitated for viable cell mass by a stable endpoint MTT assay so that the time zero cell mass is known. […] The optical density of each sample is determined spectrophotometrically at 540 nm and the mean of each treatment group is calculated. The percent net growth for each cell line in each treatment group is calculated and compared to the percent net growth in the vehicle treated controls.
A 50% or greater reduction in percent net growth in the treated samples compared to the vehicle control samples is considered a positive result. […] A compound is referred for xenograft testing if it has a combined IP+SC score of 20 or greater, a SC score of 8 or greater, or produces cell kill of any cell line at either dose level evaluated.

[7] = system: red blood cell (RBC) membrane; test: Hemolytic activity test; settings: initial experiments

Question: Which results are given for `COC(=O)CCC(C)[C@H]1CCC2C3C(C[C@H](OC(C)=O)[C@@]21C)[C@@]1(C)CCC2(C[C@H]1C[C@H]3OC(C)=O)OOC1(CCCCCCC1)OO2` (stereo partly drawn) [8c/1B11, Methyl 7α,12α-diacetoxy-5β-cholan-24-oate-3-spiro-6′-(1′,2′,4′,5′-tetraoxacyclohexane)-3′-spirocyclooctane]?
Answer: IC50 [1]: 0.0321 µg/mL (≈ 0.0484 µM); IC50 [2]: 0.0133 µg/mL (≈ 0.02 µM); Resistance Index [3]: 0.41; inhibition at 6.25 µg/mL [4]: 0%; MIC (M. tuberculosis H37Rv): > 6.25 µg/mL; CC50 [5]: > 100 µM

Question: With `CCCNC(=O)CCC(C)[C@H]1CCC2C3C(C[C@H](OC(C)=O)[C@@]21C)[C@@]1(C)CCC2(C[C@H]1C[C@H]3OC(C)=O)OOC1(CCCCC1)OO2` (stereo partly drawn) [11/1C20, N-(n-Propyl)-7α,12α-diacetoxy-5β-cholan-24-amide-3-spiro-6′-(1′,2′,4′,5′-tetraoxacyclohexane)-3′-spirocyclohexane] as the molecule, how does the IC50 [1] read?
Answer: 0.00977 µg/mL (≈ 0.0148 µM)

Question: And the IC50 [2]?
Answer: 0.0045 µg/mL (≈ 0.0068 µM)

Question: What about the “Resistance Index” value [3] of the same molecule?
Answer: 0.46

Question: What about the inhibition at 6.25 µg/mL [4] of the same molecule?
Answer: 88%

Question: And the MIC (M. tuberculosis H37Rv)?
Answer: > 6.25 µg/mL

Question: And the “Total Score” value ([6]; combined IP+SC, maximum possible 96)?
Answer: 20

Question: What about the IP score ([6]; intraperitoneal implants, agent by intraperitoneal injection at 2 dose levels, daily for 4 days) of the same molecule?
Answer: 18

Question: What about the SC score ([6]; subcutaneous implants) of the same molecule?
Answer: 2

Question: What about the “red blood cell (RBC) membrane lysis” value [7] of the same molecule?
Answer: no red blood cell (RBC) membrane lysis
